In patent US9221800B2, “Isoxazole treatments for diabetes” (The Board of Regents of the University of Texas System, priority 2011, dated 2015):

How the values were obtained:
[1] = system: BETA2; experiment: Acetylation of BETA2 (anti-myc immunoprecipitates, anti-acetyl lysine immunoblot); assay type: cell-based; details: cells overexpressing myc-BETA2 (FIG. 3C)
Protocol: FIGS. 3A-E. Isx (LSH-1) activates transcription factors that regulate insulin gene expression and insulin production. (FIG. 3A) Insulin promoter reporter activity in HEK293 cells transfected with BETA2, MafA, PDX-1, or (FIG. 3B) WT MafA or mutant MafA, treated with Isx or vehicle for 24 h. (FIG. 3C) Immunoblotting of anti-myc immunoprecipates using anti-acetyl lysine (Ac-K) and anti-BETA2 from cells overexpressing myc-BETA2. (FIG. 3D) Chromatin immunoprecipitation (ChIP) analysis of MafA and BETA2 (FIG. 3E) association with the insulin promoter in MIN6 cells in response to a 10-min glucose stimulation.

[2] = target: T1, CBP (Homo sapiens, UniProt Q92793); experiment: HAT activity of HATs expressed in 293 cells; assay type: cell-based; details: combination of ERK2 expression and Isx, 24 h (FIG. 8)
T1 construct: expressed in transfected cells; host or cells: HEK293
T1 sequence (Q92793 whole entry): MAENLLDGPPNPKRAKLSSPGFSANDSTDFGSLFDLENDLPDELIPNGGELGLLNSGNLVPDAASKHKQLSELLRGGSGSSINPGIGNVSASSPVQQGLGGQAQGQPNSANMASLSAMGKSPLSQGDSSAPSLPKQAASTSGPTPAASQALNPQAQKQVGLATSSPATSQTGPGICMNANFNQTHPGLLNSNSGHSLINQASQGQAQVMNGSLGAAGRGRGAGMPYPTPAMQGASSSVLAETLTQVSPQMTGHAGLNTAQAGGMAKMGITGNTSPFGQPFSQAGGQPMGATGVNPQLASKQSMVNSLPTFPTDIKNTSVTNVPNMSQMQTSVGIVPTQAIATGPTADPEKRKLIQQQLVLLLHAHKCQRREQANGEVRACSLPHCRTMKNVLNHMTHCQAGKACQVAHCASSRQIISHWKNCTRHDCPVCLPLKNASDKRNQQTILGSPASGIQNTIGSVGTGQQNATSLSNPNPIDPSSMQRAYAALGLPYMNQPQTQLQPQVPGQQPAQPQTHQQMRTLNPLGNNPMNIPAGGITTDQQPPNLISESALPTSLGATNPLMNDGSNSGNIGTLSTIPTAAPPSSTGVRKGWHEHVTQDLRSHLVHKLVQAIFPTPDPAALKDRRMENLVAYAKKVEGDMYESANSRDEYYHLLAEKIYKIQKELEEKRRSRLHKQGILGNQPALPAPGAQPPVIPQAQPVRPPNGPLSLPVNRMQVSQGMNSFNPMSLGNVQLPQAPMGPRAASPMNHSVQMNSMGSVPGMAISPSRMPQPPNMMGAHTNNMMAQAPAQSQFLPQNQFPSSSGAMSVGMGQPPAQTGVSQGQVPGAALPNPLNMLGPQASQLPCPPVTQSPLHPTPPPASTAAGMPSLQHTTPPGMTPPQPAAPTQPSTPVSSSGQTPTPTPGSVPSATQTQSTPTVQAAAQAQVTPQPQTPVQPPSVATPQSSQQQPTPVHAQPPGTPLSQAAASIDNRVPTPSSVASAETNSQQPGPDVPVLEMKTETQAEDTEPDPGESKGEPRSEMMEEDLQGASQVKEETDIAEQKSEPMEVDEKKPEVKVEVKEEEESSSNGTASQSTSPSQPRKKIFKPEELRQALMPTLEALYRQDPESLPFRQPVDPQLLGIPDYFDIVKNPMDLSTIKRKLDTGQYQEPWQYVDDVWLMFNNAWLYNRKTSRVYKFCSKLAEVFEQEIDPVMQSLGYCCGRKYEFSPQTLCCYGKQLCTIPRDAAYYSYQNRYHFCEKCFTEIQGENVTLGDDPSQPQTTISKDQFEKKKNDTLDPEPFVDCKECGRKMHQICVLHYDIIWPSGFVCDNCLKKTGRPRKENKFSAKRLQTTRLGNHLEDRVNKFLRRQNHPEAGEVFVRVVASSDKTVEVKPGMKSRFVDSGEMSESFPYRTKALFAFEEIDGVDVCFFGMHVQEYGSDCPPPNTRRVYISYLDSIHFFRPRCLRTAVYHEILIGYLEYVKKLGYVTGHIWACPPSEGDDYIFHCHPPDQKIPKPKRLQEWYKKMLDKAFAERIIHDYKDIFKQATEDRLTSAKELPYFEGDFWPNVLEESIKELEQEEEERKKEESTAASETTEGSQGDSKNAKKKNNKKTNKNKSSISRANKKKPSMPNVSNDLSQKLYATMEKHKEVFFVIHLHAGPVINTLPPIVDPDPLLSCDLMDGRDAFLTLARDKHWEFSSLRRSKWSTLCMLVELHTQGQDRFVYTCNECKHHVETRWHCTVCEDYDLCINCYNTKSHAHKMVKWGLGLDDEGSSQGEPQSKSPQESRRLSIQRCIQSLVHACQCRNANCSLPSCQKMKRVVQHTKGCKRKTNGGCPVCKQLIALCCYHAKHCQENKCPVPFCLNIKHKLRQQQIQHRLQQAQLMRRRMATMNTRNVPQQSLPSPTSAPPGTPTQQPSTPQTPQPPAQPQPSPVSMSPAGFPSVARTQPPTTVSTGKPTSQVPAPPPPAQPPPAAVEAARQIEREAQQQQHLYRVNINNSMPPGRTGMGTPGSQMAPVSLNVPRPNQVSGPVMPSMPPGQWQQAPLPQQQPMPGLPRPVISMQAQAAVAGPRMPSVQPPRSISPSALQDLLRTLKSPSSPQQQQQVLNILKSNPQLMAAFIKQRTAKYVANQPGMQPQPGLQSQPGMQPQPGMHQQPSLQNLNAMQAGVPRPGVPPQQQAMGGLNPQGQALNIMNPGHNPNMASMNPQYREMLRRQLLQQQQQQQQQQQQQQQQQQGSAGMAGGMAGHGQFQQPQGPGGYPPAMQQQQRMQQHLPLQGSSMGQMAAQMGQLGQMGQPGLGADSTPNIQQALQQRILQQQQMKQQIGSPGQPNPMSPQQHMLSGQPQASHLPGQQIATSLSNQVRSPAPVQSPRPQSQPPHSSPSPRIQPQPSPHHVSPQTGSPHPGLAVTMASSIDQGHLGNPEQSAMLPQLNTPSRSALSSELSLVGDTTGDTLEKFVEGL
Protocol: (FIG. 8A) Combined effect of Isx treatment for 24 h and WT ERK2 (W) or kinase dead K52R ERK2 (R) on the HAT activities of p300, and (FIG. 8B) other HATs, CBP, PCAF and GCN5-L2, transfected in HEK293 cells.

O=C(NC1CC1)c1cc(-c2cccs2)on1 [Isx, N-cyclopropyl-5-(thiophen-2-yl)isoxazole-3-carboxamide]
acetylation of BETA2 [1]: more strongly than the HDAC inhibitor sodium butyrate
CBP HAT activity [2]: increased
